In this assay the test system is MDA-MB-468 breast. The assay is described as follows: NCI-60 cell line screen, 48 h.

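96-well plates; 48 h exposure; 5 concentrations. Endpoints by linear interpolation between flanking doses. Not reached: highest tested concentration assigned. GI50: concentration for 50% inhibition of growth. Definition used: TGI = concentration required for complete inhibition of growth.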

As to `COc1ccc(/C(=C/c2ccc3ccccc3c2)c2nn[nH]n2)cc1OC`, the GI50 was 21.5 µM and the TGI was over 100 µM.

`COc1ccc(C2=NN(C=O)C(c3ccc(OS(=O)(=O)c4ccc(C)cc4)c(OC)c3)C2)cc1` (stereo not drawn): the GI50 is 1.44 µM and the TGI came to 7.7 µM.

On to `CON=C1C[C@]2(C[C@@H]3C[C@@H](C/C=C(\C)C[C@@H](C)/C=C/C=C4\CO[C@@H]5[C@H](O)C(C)=C[C@@H](C(=O)O3)[C@]45O)O2)O[C@H](/C(C)=C/C(C)C)[C@H]1C`, for which the GI50 is 12.8 µM and the TGI came to 27.5 µM.

For the molecule `FC(F)(F)c1cc(Br)cc(-c2cc(-c3ccc4c(c3)OCCO4)[nH]n2)c1`, the GI50 was 0.345 µM and the TGI was over 100 µM.

As to `COc1ccc(C(C)=C(c2ccc(OCCN(C)C)cc2)c2ccc(OCCN(C)C)cc2)cc1`, the GI50 is 0.489 µM and the TGI is 1.44 µM.

`CCN(CC)S(=O)(=O)c1ccc(-c2nc(C(Cl)Cl)nc3cc(-c4ccc(F)cc4)nn23)cc1`: the GI50 is 1.78 µM and the TGI came out at 6.46 µM.

As for `Cc1ccc(S(=O)(=O)OCC(=O)Nc2ccc(C(=O)O)c(O)c2)cc1`, the GI50 was 29.1 µM and the TGI was 98.6 µM.

Take `Clc1ccc(C2CC(c3cccc(Nc4ccncc4)c3)=NN2c2ccccc2)cc1` (stereo not drawn): the GI50 was 1.51 µM and the TGI stood at 3.05 µM.

As to `COC1=CC(c2ccc[nH]2)=N/C1=C\c1[nH]c(C)c(C(=O)Oc2ccccc2)c1C`, the GI50 was 0.368 µM and the TGI came out at 1.94 µM.

Consider `CN1CCN(Cc2ccc(NC(=O)c3cncc(C#Cc4c(N)ncc5c(F)cccc45)c3)cc2C(F)(F)F)CC1`, for which the GI50 was 0.872 µM and the TGI was 1.69 µM.

Consider `CCCCCCCCCCCCNC(=O)N[C@H](C(=O)N[C@H]1/C=C/CCNC(=O)/C=C/[C@H](C)NC1=O)C(C)C`, for which the GI50 is 0.0531 µM and the TGI worked out at 0.218 µM.

For `COc1cc(-c2cc(-c3cccs3)c(C#N)c(N3CCOCC3)n2)cc(OC)c1OC`, the GI50 is 1.99 µM and the TGI worked out at 7.06 µM.

Take `CCNC(=O)Oc1ccc(/C(=C(\C)c2ccc(Cl)cc2)c2ccc(OCCN(CC)CC)cc2)cc1`: the GI50 is 3.63 µM and the TGI is 14.6 µM.

As for `CC(C)(C)[Si](C)(C)OC1[C@@H](O[Si](C)(C)C(C)(C)C)[C@@H](CNC(=O)NC(=O)NC(=O)CCl)O[C@H]1n1cnc2c(NC(=O)Nc3ccccc3)ncnc21` (stereo partly drawn), the GI50 is 3.91 µM and the TGI was determined as 10.5 µM.

Consider `Cc1cc2c(C(=O)NCC#N)cccc2n1-c1nc2c(c(NCc3ccccc3)n1)CCCC2`, for which the GI50 is 0.206 µM and the TGI came out at 0.422 µM.

`CCCCOC(=O)/C=C\C(=O)NC(N)=O`: the GI50 was 4.29 µM and the TGI was found to be 19.4 µM.

As for `COc1ccc(Cc2cc(OC)c(OC)c(OC)c2)cc1`, the GI50 was 0.312 µM and the TGI is over 100 µM.

For `COc1ccc(C2CC(c3ccccc3)=NN2C(=O)c2cc(OC)c(OC)c(OC)c2)cc1O` (stereo not drawn), the GI50 is 0.223 µM and the TGI was 0.613 µM.

Take `O=c1c2cccc(F)c2sc2c(NCCCNCCO)nc3ccccc3c12`: the GI50 is 1.63 µM and the TGI stood at 3.26 µM.

Consider `COc1cc(N2CCN(C(C)C)CC2)ccc1Nc1nc(Nc2ccc(F)cc2C(=O)NCC(O)CO)c2cc[nH]c2n1` (stereo not drawn), for which the GI50 is 4.46 µM and the TGI was 20.5 µM.

As to `COc1ccc2nc3cc(Cl)ccc3c(NCCNCC(O)CO)c2c1` (stereo not drawn), the GI50 is 0.975 µM and the TGI turned out to be 3.16 µM.

In the case of `Cc1cc(O[C@@H]2O[C@@H](C)[C@H](O)[C@@H](O)[C@H]2O)c2c3c(c(O[C@@H]4O[C@@H](C)[C@H](O)[C@@H](O)[C@H]4O)cc2c1)C(=O)c1c(O)cccc1C3=O`, the GI50 was 24.5 µM and the TGI is over 30 µM.

Consider `CCC(CC)c1cc(N[C@H]2CC[C@H](N)C2)n2nccc2n1`, for which the GI50 is 0.438 µM and the TGI was 2.39 µM.

Regarding `O=C(CN1CCN(CCN2C(=O)c3cccc4cccc(c34)C2=O)CC1)Nc1ccc2ncsc2c1`, the GI50 was 4.79 µM and the TGI came to 22.3 µM.

The values above are taken from PubChem BioAssay (NCI).
